From patent publication US20110275673A1, “INHIBITORS OF SPHINGOSINE KINASE 1” (priority 2008, published 2011)
Counter-ions that a name gives are not always drawn.

These compounds were tested against T1, SPHK-1 (Homo sapiens, UniProt Q9NYA1) (assay: Reporter Assay: sphingosine kinase conversion of fluorescein-labeled sphingosine, read on Lab Chip 3000). Settings: 2 μM Fl-sphingosine, 25 μM ATP, 300 ng/ml SK1, 1 hour at room temperature; from percent conversion of substrate to product; read-out: SPHK-1 IC50 (n =).
T1 construct: purchased BPS Bioscience
T1 sequence (Q9NYA1 whole entry): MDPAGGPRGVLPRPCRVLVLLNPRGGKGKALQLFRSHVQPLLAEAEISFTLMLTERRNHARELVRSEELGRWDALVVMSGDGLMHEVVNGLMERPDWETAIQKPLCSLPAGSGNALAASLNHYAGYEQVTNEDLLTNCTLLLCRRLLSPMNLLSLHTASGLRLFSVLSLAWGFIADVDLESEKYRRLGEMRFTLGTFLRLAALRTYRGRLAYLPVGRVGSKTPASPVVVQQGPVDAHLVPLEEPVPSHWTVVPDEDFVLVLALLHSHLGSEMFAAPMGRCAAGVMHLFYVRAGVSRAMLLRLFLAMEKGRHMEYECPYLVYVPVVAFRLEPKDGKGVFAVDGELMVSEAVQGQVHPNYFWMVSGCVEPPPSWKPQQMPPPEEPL
Format: biochemical
Description: Sphingosine kinase is a 49 kDa enzyme that catalyzes the formation of sphingosine-1-phosphate (S-1-P) from sphingosine.
Fluorescein labeled sphingosine was obtained from Echelon Biosciences (S-100F). Buffer reagents (1 M Hepes, 10 triton x-100, 100% glycerol, dithiothreitol 1 M MgCl2, ATP, 500 mM EDTA and DMSO) were purchased from Sigma. Coating reagent (CR-3), was obtained from Caliper Life Sciences.
0.05% Triton X-100, 2.5% glycerol, 0.1% CR-3, and 0,6% DMSO. Termination butler included 100 mM Hepes (pH 7.5), 40 mM EDTA, 0.05% Triton X-100, 2.5% glycerol, 0.3% CR-3, and 0.6% DMSO.
All assay components were made in reaction buffer. […] The assaylvas allowed to incubate at room temperature sealed and protected from light for 1 hour.
After 1 hour, 10 μl of termination buffer was added to terminate, the reaction, and the plate was read on a Lab Chip 3000. The plate was read for one cycle. The Lab Chip separated substrate and product based on charge.
Results were calculated based on percent conversion of substrate to product using the following formula: […]
Percent inhibition and IC50's for compounds of the invention were determined using the percent conversion values obtained horn the Lab Chip.
`O=C(NCc1ccc2oc(CCOc3ccc(F)cc3)cc2c1)[C@H]1NCC[C@@H]1O` [Example 111, (2S,3S)—N-((2-(2-(4-Fluorophenoxy)ethyl)benzofuran-5-yl)methyl)-3-hydroxypyrrolidine-2-carboxamide] gave an IC50 of 5 µM.
For `O=C(NCc1cc(F)c2oc(CC3CCCC3)cc2c1)[C@H]1NCC[C@@H]1O` [Example 120, (2S,3S)—N-((2-(Cyclopentylmethyl)-7-fluorobenzofuran-5-yl)methyl)-3-hydroxypyrrolidine-2-carboxamide], the IC50 was 2.3 µM.
`CCCCCCCc1cc2cc(CNC(=O)[C@H]3NCC[C@@H]3O)ccc2o1` [Example 113, (2S,3S)—N-((2-Heptylbenzofuran-5-yl)methyl)-3-hydroxypyrrolidine-2-carboxamide] showed an IC50 of 0.16 µM.
Work on `CC[C@H](NC(=O)[C@H]1NCC[C@@H]1O)c1ccc(-n2cc(CCc3ccccc3)nn2)cc1` [Example 66, (2S,3S)-3-Hydroxy-N—((S)-1-(4-(4-phenethyl-1H-1,2,3-triazol-1-yl)phenyl)propyl)pyrrolidine-2-carboxamide] yielded an IC50 of 0.14 µM.
`O=C(NCc1ccc2oc(CC3CCCCC3)cc2c1)[C@H]1NCC[C@@H]1O` [Example 116, (2S,3S)—N-((2-(Cyclohexylmethyl)benzofuran-5-yl)methyl)-3-hydroxypyrrolidine-2-carboxamide] was tested, and the IC50 was 0.11 µM.
In the case of `CCCCCCCCc1cc2cc(CNC(=O)[C@H]3NCC[C@@H]3O)c(F)cc2o1` [Example 119, (2S,3S)—N-((6-Fluoro-2-octylbenzofuran-5-yl)methyl)-3-hydroxypyrrolidine-2-carboxamide], the IC50 is reported as 0.7 µM.
Compound `CCCCCCCCc1nc(-c2ccc(CNC(=O)[C@H]3NCC[C@@H]3O)cc2)cs1` [Example 103, (2S,3S)-3-hydroxy-N-(4-(2-octylthiazol-4-yl)benzyl)pyrrolidine-2-carboxamide] has an IC50 of 0.049 µM.
For `CCCCCCCc1ccc(-c2ccc(NC(=O)[C@@H](N)[C@@H](C)O)cc2)nc1` [Example 101, (2S,3R)-2-amino-N-(4-(5-heptylpyridin-2-yl)phenyl)-3-hydroxybutanamide], the IC50 was 0.9 µM.
With `CCCCCCCCCCc1ccc(NC(=O)[C@H]2C[C@H](O)CCN2)cc1` [Example 123, (2R,4R)—N-(4-decylphenyl)-4-hydroxypiperidine-2-carboxamide] the IC50 was 9.7 µM.
With `CCCCCCCCc1ccc(NC(=O)[C@H]2NCC[C@@H]2O)cn1` [Example 26, (2S,3S)-3-Hydroxy-N-(6-octylpyridin-3-yl) pyrrolidine-2-carboxamide] the IC50 was 3 µM.
In the case of `CCCCCCCc1ccc(-c2ccc(NC(=O)[C@H]3NCC[C@@H]3O)cc2)nc1` [Example 104, (2S,3S)—N-(4-(5-heptylpyridin-2-yl)phenyl)-3-hydroxypyrrolidine-2-carboxamide], the IC50 is reported as 1.6 µM.
`O=C(NCc1ccc(-n2cc(CCc3ccc(F)cc3)nn2)cc1)[C@H]1NCC[C@@H]1O` [Example 68, (2S,3S)—N-(4-(4-(4-Fluorophenethyl)-1H-1,2,3-triazol-1-yl)benzyl)-3-hydroxypyrrolidine-2-carboxamide] gave an IC50 of 7.3 µM.
With `CCCCCCc1cc2cc(CNC(=O)[C@H]3NCC[C@@H]3O)ccc2o1` [Example 114, (2S,3S)—N-((2-Hexylbenzofuran-5-yl)methyl)-3-hydroxypyrrolidine-2-carboxamide] the IC50 was 0.53 µM.
In the case of `CCCCCCCCCc1ccc(NC(=O)[C@@H](N)[C@@H](C)O)cc1` [Example 14, (2S,3R)-2-Amino-3-hydroxy-N-(4-nonylphenyl) butanamide], the IC50 is reported as 0.18 µM.
`C[C@@H](O)[C@H](N)C(=O)Nc1ccc(CCCCCOc2ccc(F)cc2)cc1` [Example 22, (2S,3R)-2-Amino-N-(4-(5-(4-fluorophenoxy)pentyl)phenyl)-3-hydroxy-butanamide] was tested, and the IC50 was 3.2 µM.
For `CCCCCCCCc1ccc(NC(=O)[C@@H](NCC2CCCCC2)[C@H](C)O)cc1` [Example 48, (2S,3S)-2-(cyclohexyl-methyl-amino)-3-hydroxy-N-(4-octylphenyl) butanamide], the IC50 was > 1 µM.
With `CCCCCCS(=O)(=O)Cc1ccc(NC(=O)[C@H]2NCC[C@@H]2O)cc1` [Example 46, (2S,3S)-N-(4-(hexylsulfonyl-methyl)phenyl)-3-hydroxy-pyrrolidine-2-carboxamide] the IC50 was > 10 µM.
`CCCCCCCCc1ccc(NC(=O)[C@H]2NC[C@H](O)[C@@H]2O)cc1` [Example 20, (2S,3R,4S)-3,4-Dihydroxy-N-(4-octylphenyl) pyrrolidine-2-carboxamide] showed an IC50 of 8.3 µM.
Work on `CCCCCCCCc1ccc(-c2ccc(NC(=O)[C@@H](N)[C@@H](C)O)cc2)cc1` [Example 59, (2S,3R)-2-Amino-3-hydroxy-N-(4′-octylbiphenyl-4-yl)butanamide] yielded an IC50 of 1.1 µM.
`CCCCCCOCc1ccc(NC(=O)[C@H]2NCC[C@@H]2O)cc1` [Example 19, (2S,3S)-N-(4-(Hexyloxy-methyl)phenyl)-3-hydroxy-pyrrolidine-2-carboxamide] gave an IC50 of 0.99 µM.
With `CCCCCCCCc1ccc(O)c(NC(=O)[C@H]2NCC[C@@H]2O)c1` [Example 58, hydrochloride] the IC50 was 3.6 µM.
For `CCCCC(=O)CCCCCc1ccc(NC(=O)[C@H]2NCC[C@@H]2O)cc1` [Example 38, (2S,3S)-3-hydroxy-N-(4-(6-oxodecyl)phenyl) pyrrolidine-2-carboxamide], the IC50 was 0.086 µM.
`CCCCCCCC(O)CCCc1ccc(NC(=O)[C@H]2NCC[C@@H]2O)cc1` (stereo partly drawn) [Example 42, (2S,3S)-3-hydroxy-N-(4-(4-hydroxy-undecyl)phenyl) pyrrolidine-2-carboxamide] showed an IC50 of 0.12 µM.
Work on `CC(C)Cc1ccc(-c2nc(-c3ccc(CNC(=O)[C@H]4NCC[C@@H]4O)cc3)no2)cc1` [Example 78, (2S,3S)-3-Hydroxy-N-(4-(5-(4-isobutylphenyl)-1,2,4-oxadiazol-3-yl)benzyl)pyrrolidine-2-carboxamide] yielded an IC50 of 4.4 µM.
In the case of `CCCCCCCCc1cc2cc(CNC(=O)[C@H]3NCC[C@@H]3O)ccc2n1C` [Example 109, (2S,3S)-3-Hydroxy-N-((1-methyl-2-octyl-1H-indol-5-yl)methyl)pyrrolidine-2-carboxamide], the IC50 is reported as 0.3 µM.
`CC[C@H](NC(=O)[C@H]1NCC[C@@H]1O)c1ccc(-c2noc(C3CCCCC3)n2)cc1` [Example 99, (2S,3S)—N—((S)-1-(4-(5-Cyclohexyl-1,2,4-oxadiazol-3-yl)phenyl)propyl)-3-hydroxypyrrolidine-2-carboxamide hemi-tartrate salt] gave an IC50 of 0.13 µM.
In the case of `CCCCCCC(O)CCCc1ccc(NC(=O)[C@@H](N)[C@@H](C)O)cc1` (stereo partly drawn) [Example 35, (2S,3R)-2-amino-3-hydroxy-N-(4-(4-hydroxydecyl)phenyl) butanamide], the IC50 is reported as 6.9 µM.
`CCCCCCCOc1ccc(NC(=O)[C@@H](N)[C@@H](C)O)cc1` [Example 12, (2S,3R)-2-Amino-N-(4-(heptyloxy)phenyl)-3-hydroxy-butanamide] gave an IC50 of 1.5 µM.
Work on `CCCCCCCCc1ccc(NC[C@H]2NCC[C@@H]2O)cc1` [Example 9, (2R,3S)-2-((4-Octylphenyl-amino)methyl) pyrrolidin-3-ol] yielded an IC50 of 0.74 µM.
`CCCCCCCCc1cc2cc(CNC(=O)[C@H]3NCC[C@@H]3O)cc(F)c2o1` [Example 118, (2S,3S)—N-((7-Fluoro-2-octylbenzofuran-5-yl)methyl)-3-hydroxypyrrolidine-2-carboxamide] was tested, and the IC50 was 0.46 µM.
`C[C@H](NC(=O)[C@H]1NCC[C@@H]1O)c1ccc(-c2noc(CCC3CCC3)n2)cc1` [Example 100, (2S,3S)—N—((S)-1-(4-(5-(2-Cyclobutylethyl)-1,2,4-oxadiazol-3-yl)phenyl)ethyl)-3-hydroxypyrrolidine-2-carboxamide hemi tartrate salt] was tested, and the IC50 was 0.059 µM.
In the case of `CCCCCCSCc1ccc(NC(=O)[C@H]2NCC[C@@H]2O)cc1` [Example 39, (2S,3S)-N-(4-(hexylthiomethyl)phenyl)-3-hydroxy-pyrrolidine-2-carboxamide], the IC50 is reported as 0.11 µM.
